Reference: ChEMBL document CHEMBL1201862, “PubChem BioAssay data set” (2004)
The source made the active and inactive calls.

Experiments:
[1] = NIH-3T3 fibroblast cytotoxicity, dose response, cytotoxicity control, cell-based, fluorescence, Alamar Blue, secondary assay (AID 2327); assay type: functional;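 also: NIH-3T3 mouse fibroblasts cultured with fluconazole at 8 µg/mL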
[2] = C. albicans growth with fluconazole, confirmation, fluorescence, retest (AID 2467); assay type: functional, cell-based
[3] = system: BJ; assay: cells; assay type: functional, cell-based; conditions: Homo sapiens
[4] = system: BJ; assay: cytotoxicity toward BJ-TERT-LT-ST fibroblasts, dose response, cell-based, RAS-independent, luminescence (AID 1935); assay type: functional; conditions: Homo sapiens;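 also: BJ fibroblasts immortalized with TERT plus LT and ST oncogenes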
[5] = system: INS1; assay: beta cell apoptosis inhibitors, cytokine rescue, dose response, luminescence, retest (AID 449756); assay type: functional, cell-based; conditions: Rattus norvegicus;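 also: cell death triggered by IL-1 beta plus TNF-alpha plus IFN-gamma mixture; protective hits raise ATP signal compared with cytokine alone wells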
[6] = system: BJ; assay: cytotoxicity toward BJ-TERT fibroblasts, dose response, cell-based, RAS-independent, luminescence (AID 1933); assay type: functional; conditions: Homo sapiens
[7] = molecular target: G-protein coupled receptor 55 (Homo sapiens, UniProt Q9Y2T6); assay: GPR55 antagonists, SAR follow-up, counter-screen for GPR35 antagonist project, imaging, image-based (AID 2397); assay type: functional
Chain of G-protein coupled receptor 55 (Q9Y2T6 whole entry): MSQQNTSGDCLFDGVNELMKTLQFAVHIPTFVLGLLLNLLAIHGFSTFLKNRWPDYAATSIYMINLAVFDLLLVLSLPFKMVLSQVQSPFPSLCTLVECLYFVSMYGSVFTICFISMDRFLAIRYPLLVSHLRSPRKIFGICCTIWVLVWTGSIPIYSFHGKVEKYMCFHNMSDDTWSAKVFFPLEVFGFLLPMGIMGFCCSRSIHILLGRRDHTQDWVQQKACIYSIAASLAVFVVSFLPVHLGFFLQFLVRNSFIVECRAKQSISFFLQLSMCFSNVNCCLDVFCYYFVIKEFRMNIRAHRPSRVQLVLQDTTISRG

[8] = cytotoxicity toward DRD oncogenic fibroblasts, dose response, cell-based, non-viral oncogenic, luminescence (AID 1934); assay type: functional; conditions: Homo sapiens
[9] = molecular target: T1, Tyrosine-protein phosphatase non-receptor type 7 (Homo sapiens, UniProt P35236); assay type: functional
T1 sequence (P35236 whole entry): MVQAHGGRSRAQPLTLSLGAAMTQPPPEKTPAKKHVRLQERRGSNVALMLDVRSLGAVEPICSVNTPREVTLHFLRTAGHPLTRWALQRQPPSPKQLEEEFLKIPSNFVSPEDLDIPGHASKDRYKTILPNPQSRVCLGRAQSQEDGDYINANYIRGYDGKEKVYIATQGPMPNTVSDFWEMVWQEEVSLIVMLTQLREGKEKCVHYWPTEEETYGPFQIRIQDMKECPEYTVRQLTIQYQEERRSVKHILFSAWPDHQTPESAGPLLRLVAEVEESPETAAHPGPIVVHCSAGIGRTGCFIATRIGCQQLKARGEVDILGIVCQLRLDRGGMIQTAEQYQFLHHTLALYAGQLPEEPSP

[10] = molecular target: T2, Tyrosine-protein phosphatase non-receptor type 22 (Homo sapiens, UniProt Q9Y2R2); assay type: functional
T2 sequence (Q9Y2R2 whole entry): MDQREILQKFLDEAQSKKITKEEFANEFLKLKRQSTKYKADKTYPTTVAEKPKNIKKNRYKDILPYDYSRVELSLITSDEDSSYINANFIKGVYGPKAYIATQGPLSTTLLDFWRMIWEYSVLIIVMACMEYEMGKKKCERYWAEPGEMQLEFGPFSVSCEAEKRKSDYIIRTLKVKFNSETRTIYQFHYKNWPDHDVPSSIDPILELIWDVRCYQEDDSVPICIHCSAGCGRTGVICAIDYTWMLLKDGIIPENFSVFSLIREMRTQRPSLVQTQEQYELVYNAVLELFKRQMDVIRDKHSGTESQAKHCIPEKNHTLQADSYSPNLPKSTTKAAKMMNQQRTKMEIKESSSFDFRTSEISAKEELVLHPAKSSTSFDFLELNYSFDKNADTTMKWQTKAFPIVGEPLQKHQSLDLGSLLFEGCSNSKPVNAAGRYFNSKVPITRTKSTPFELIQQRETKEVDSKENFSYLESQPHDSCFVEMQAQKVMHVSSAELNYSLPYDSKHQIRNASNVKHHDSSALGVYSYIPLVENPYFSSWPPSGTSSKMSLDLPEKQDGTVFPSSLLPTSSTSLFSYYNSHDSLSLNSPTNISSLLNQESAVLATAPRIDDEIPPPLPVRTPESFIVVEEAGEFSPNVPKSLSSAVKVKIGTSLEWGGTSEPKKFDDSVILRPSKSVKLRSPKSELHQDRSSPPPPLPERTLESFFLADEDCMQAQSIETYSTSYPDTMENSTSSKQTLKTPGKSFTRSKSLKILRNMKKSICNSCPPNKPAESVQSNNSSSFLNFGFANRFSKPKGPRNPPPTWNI

[11] = molecular target: T2, Tyrosine-protein phosphatase non-receptor type 22; assay type: functional; remark: listed apart in the source
[12] = molecular target: T1, Tyrosine-protein phosphatase non-receptor type 7; assay: HePTP (PTPN7) phosphatase inhibitor potency, SAR follow-up, biochemical, set 2 (AID 449736); assay type: functional
[13] = molecular target: T3, Dual specificity protein phosphatase 6 (Rattus norvegicus, UniProt Q64346); assay type: functional
T3 sequence (Q64346 whole entry): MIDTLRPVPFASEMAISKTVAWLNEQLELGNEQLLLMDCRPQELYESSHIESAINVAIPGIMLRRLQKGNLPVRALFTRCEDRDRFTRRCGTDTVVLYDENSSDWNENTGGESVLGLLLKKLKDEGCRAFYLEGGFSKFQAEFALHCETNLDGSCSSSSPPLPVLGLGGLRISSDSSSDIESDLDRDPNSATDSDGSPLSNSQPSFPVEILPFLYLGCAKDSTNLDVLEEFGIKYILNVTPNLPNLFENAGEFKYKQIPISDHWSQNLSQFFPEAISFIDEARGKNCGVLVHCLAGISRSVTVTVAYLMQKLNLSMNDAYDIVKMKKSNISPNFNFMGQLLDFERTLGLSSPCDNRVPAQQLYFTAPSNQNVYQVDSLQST

[14] = molecular target: T4, Dual specificity protein phosphatase 3 (Homo sapiens, UniProt P51452); assay: SAR VHR1 absorbance Assay for In Vitro dose response studies. [Related pubchem assays (depositor defined):AID1654, AID1661, AID1878, AID1992, AID2004]
T4 sequence (P51452 whole entry): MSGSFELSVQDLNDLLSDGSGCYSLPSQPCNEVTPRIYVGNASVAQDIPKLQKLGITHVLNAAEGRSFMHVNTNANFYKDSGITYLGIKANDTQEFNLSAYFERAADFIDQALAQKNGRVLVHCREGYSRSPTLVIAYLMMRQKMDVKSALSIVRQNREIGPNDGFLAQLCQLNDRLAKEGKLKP

[15] = molecular target: T3, Dual specificity protein phosphatase 6; assay: SAR analysis of inhibitors of MKP-3 - Set 2. [Related pubchem assays (depositor defined):AID1055, AID1661, AID425, AID553, AID566]; assay type: functional
[16] = molecular target: T4, Dual specificity protein phosphatase 3; assay: SAR VHR1 Fluorescent Assay for In Vitro dose response studies Set 2. [Related pubchem assays (depositor defined):AID1654, AID1661, AID1878]; assay type: functional
[17] = molecular target: T1, Tyrosine-protein phosphatase non-receptor type 7; assay: SAR analysis of chemical inhibitors of HePTP using a Fluorescent assay - Set 2. [Related pubchem assays (depositor defined):AID1059, AID1077, AID1661, AID2085, AID521]; assay type: functional
[18] = molecular target: T1, Tyrosine-protein phosphatase non-receptor type 7; assay: redox-dependent HePTP inhibition, mechanism study, biochemical, fluorescence (AID 2068); assay type: functional
[19] = molecular target: T4, Dual specificity protein phosphatase 3; assay: SAR VHR1 Fluorescent Assay for In Vitro dose response studies. [Related pubchem assays (depositor defined):AID1654, AID1661, AID1878, AID1992, AID2004, AID2070, AID2085]; assay type: functional
[20] = molecular target: T5, Cytochrome P450 1A2 (Homo sapiens, UniProt P05177);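 also: PubChem cytochrome P450 panel assay, CYP1A2 panel member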
T5 sequence (P05177 whole entry): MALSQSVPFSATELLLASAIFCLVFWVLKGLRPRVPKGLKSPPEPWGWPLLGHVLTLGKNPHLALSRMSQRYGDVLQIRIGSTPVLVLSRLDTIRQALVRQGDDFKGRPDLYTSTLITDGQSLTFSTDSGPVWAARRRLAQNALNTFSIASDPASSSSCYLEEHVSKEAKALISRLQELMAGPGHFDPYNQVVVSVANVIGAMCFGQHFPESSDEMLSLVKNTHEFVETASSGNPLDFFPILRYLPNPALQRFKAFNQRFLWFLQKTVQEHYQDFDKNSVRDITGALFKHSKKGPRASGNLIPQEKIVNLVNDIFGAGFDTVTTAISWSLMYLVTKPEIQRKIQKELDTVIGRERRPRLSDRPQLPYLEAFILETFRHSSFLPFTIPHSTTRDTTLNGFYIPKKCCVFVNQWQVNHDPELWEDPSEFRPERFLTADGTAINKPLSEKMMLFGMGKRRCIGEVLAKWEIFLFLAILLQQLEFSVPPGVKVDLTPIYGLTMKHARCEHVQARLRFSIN

[21] = molecular target: T6, Sphingosine 1-phosphate receptor 4 (Homo sapiens, UniProt O95977); assay: Fluorescence dose response cell-based high throughput screening assay for agonists of the Sphingosine 1-Phosphate Receptor 4 (S1P4). [Related pubchem assays: 1509 (Primary screen.), 1523 (Confirmation screen in triplicates.)]; assay type: functional
T6 sequence (O95977 whole entry): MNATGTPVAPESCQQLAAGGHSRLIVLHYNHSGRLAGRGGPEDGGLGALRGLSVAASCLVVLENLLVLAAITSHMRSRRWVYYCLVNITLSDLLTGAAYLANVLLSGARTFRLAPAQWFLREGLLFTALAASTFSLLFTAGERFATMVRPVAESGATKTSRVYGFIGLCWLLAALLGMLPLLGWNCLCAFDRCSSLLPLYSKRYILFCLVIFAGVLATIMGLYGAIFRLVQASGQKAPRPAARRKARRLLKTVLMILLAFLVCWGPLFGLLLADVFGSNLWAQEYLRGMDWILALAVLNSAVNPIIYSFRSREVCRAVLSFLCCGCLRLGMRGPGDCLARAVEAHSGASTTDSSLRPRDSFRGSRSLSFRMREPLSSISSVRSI

[22] = molecular target: Cytochrome P450 2C19 (Homo sapiens, UniProt P33261); assay: Cytochrome panel assay with activity outcomes. Panel member name: p450-cyp2c19 Compounds with AC50 equal or less than 10 uM are considered active; assay type: functional; conditions: read-out: AC50
Chain of Cytochrome P450 2C19 (P33261 whole entry): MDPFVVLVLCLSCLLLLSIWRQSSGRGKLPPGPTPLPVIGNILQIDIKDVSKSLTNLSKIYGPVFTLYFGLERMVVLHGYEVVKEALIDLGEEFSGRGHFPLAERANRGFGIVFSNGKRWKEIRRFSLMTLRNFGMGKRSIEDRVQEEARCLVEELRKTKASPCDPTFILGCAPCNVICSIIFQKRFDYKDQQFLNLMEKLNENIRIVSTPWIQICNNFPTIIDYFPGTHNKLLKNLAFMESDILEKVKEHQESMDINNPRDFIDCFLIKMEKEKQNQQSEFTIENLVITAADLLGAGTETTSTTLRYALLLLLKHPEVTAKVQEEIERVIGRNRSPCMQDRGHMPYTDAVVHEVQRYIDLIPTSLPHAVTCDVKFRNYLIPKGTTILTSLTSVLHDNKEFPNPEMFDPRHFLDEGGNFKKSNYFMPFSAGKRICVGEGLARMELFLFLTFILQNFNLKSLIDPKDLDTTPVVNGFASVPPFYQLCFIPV

[23] = molecular target: Sphingosine 1-phosphate receptor 1 (Homo sapiens, UniProt P21453); assay: Fluorescence-based counterscreen assay for S1P4 agonists: Cell-based dose response high throughput screening assay to identify agonists of the Sphingosine 1-Phosphate Receptor 1 (S1P1). [Related pubchem assays (depositor defined):AID1509, AID1523, AID1801, AID463107, AID463118, AID463119, AID463122, AID463123, AID463129, AID463225, AID504400, AID504460]; assay type: functional
Chain of Sphingosine 1-phosphate receptor 1 (P21453 whole entry): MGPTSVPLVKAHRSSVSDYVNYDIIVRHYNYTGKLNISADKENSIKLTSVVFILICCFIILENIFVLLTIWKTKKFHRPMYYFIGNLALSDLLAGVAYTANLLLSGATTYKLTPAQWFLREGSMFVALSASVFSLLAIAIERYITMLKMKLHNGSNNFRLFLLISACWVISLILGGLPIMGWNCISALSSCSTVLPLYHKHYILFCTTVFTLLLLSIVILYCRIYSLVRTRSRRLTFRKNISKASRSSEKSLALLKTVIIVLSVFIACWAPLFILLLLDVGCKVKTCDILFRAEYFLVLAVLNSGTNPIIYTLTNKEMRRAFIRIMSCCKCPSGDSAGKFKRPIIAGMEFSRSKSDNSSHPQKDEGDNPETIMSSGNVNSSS

Cn1cc(/C=C/c2cc[n+](C)cc2)c2cc(Cl)ccc21
EC50 [1]: > 150 µM (inactive)
EC50 [2]: 1.29 µM (active)
EC50 [3]: 16.2 µM (active)
EC50 [4]: > 150 µM (not active)
AC50 [5]: 4.33 µM (active)
EC50 [6]: 9.8 µM (active)
IC50 [7]: 3.42 µM (active)
EC50 [8]: 22.1 µM (inconclusive)

O=C(c1ccncc1)N1CCN(C(=O)c2ccncc2)CC1
IC50 [9]: > 79.4 µM (inactive)
IC50 [10]: > 79.4 µM (inactive)
IC50 [11]: > 79.4 µM (inactive)

NS(=O)(=O)c1ccc(NC(=S)N2CCN(Cc3ccc4c(c3)OCO4)CC2)cc1
IC50 [12]: > 100 µM (inactive)
IC50 [13]: > 99 µM (inactive)
IC50 [14]: 5.41 µM (active)
IC50 [15]: > 100 µM (inactive)
IC50 [16]: 1.69 µM (active)
IC50 [17]: 4.32 µM (active)
IC50 [18]: 0.196 µM (active)
IC50 [19]: > 99 µM (inactive)

COC(=O)c1c(-n2c(C)cc(C=O)c2C)sc2c1CCCC2
AC50 [20]: 5.01 µM (inconclusive)
EC50 [21]: > 49.8 µM (not active)
AC50 [22]: 0.794 µM (inconclusive)
EC50 [23]: > 49.8 µM (inactive)
